According to a melting point compilation (Tetko et al.; mined from patent text by program, amines drawn as free bases though some values may be those of a salt):

melting point [°C]	Structure (SMILES)
103	Nc1ccccc1CCN1CCN(c2ccccc2)CC1
245 to 247	O=c1cc(Cl)c2nc3ccc(F)cc3sc-2c1Cl
209 to 211	CNC(=O)c1cc2nc(C(F)(F)F)ccc2c(OC)c1NC(=O)c1cc(C(F)(F)F)nn1-c1ncccc1Cl
53 to 54	C[Si](C)(c1ccccc1)c1ccccc1CO
162 to 166	Cc1ccc(NC(=O)c2cccc(N3CCOCC3)c2)cc1NC(=O)c1cccc(OC2CCNCC2)c1
83 to 84.5	CCOCn1c(C(F)(F)F)cc(C#N)c1-c1ccc(Cl)cc1
240	N#Cc1cc(NC(=O)c2ccn(-c3ccc(F)cc3)c2)ccc1N1CCN(C2CCOCC2)CC1
138 to 139	COCC(C)Oc1cc(Oc2ccc(S(C)(=O)=O)nc2)cc2cc(C3=NCC(CCO)S3)[nH]c12 (centres undefined)
99 to 100	COCCNc1cc(-c2c(-c3cccc(C)c3)nc3cccnn23)ccn1
86 to 88	CCn1c2c(c3ccccc31)CCSC2(C)CCN(C)C (centres undefined)
37 to 38	C=C(CCCCCCCCCCCCCCCC)CC(CO)COCCCCCCCCCCCCCCCC (centres undefined)
115 to 118	CN1CCN(Cc2cc3c(cc2F)-c2[nH]nc(-c4ccsc4)c2C3)CC1
197 to 200	CC(C)c1ccc2[nH]c(C(=O)c3ccc(Cl)cc3)c(CC(=O)O)c2c1
115 to 117	CC(=O)NNC(COCc1cc(C)cc(C)c1)C1c2ccccc2C=Cc2ccccc21 (centres undefined)
106 to 107	CC(C)(c1ccc(O)cc1)c1ccc(O)c(Cl)c1
258 to 260	CCOC(=O)c1nnc2ccc(-c3cccs3)cc2c1O
183 to 184	CS(=O)(=O)c1ccc(-n2nc(C(F)(F)F)cc2-c2ccc(-n3ccnc3)cc2)cc1
115 to 117	N#CC(C#N)=C1c2ccccc2-c2c(C(=O)OCCc3ccccc3)cccc21
152 to 154	CCC1c2cccn2-c2ccc(F)cc2N1S(=O)(=O)c1ccc(OC)c(Cl)c1 (centres undefined)
184 to 186	Nc1c(Oc2ccc(F)c(C(F)(F)F)c2)nc(Br)nc1Oc1ccc(F)c(C(F)(F)F)c1
263 to 264	CC1(C)C(=O)Oc2c(S(C)(=O)=O)cc3cc(S(C)(=O)=O)c(Cn4cncn4)cc3c21
55 to 57	CNCCCS(=O)(=O)CCCC(F)(F)C(F)(F)F
160 to 162	CCOC(=O)C1CC(=C2CCN(c3ccccc3)C2=O)c2ccc(Cl)cc2N1 (centres undefined)
191 to 192	CCC(=N)NC(=O)Nc1ccc(Cl)cc1

melting point [°C]	Structure (SMILES)
135 to 140	COc1cc2c(c3c1OC(C)(C)C3)C(c1cccc(NC(=O)CS(C)(=O)=O)c1)=NC(C)(C)C2
68	CC(C)(C)OC(=O)N(Cc1ccccc1)C1(CO)CC1
108 to 109	CC(C)[C@H](C/C=C/C[C@H](C(=O)N1C(=O)OC[C@@H]1Cc1ccccc1)C(C)C)C(=O)N1C(=O)OC[C@@H]1Cc1ccccc1
147 to 149	CCN(CC)C(=O)c1cc(-c2ccc(OC)cc2)c2ccccc2c1
129	CC(=O)SCC(=O)NCCSC=CSCCNC(=O)CSC(C)=O
150 to 153	CC(=O)Nc1nc2ccccc2n1-c1nc(N2CCOCC2)nc(N2CCOCC2)n1
192	CC(=O)NC[C@H]1CN(c2cc(F)c(N3CCC(n4nnnc4CS(C)(=O)=O)CC3)c(F)c2)C(=O)O1
68 to 69	C[Si](C)(C)c1ccc(Cl)s1
137	CC(C)(C)c1nn(-c2c(Cl)cc(C(F)(F)F)cc2Cl)c(N)c1Cl
224 to 226	NS(=O)(=O)c1ccc(C2=NNC(C(=O)O)C2)cc1 (centres undefined)
95 to 99	CN(C)CCCOc1c(Cl)cc(-c2nnc(CSCCOc3ccccc3)o2)cc1Cl
> 250	c1ccc(-c2cnc(Nc3ccncn3)s2)cc1
105 to 110	COc1cc(CC(=O)CCNCCOc2ccc(C(=O)O)cc2OC)ccc1NC(=O)Nc1ccccc1F
229 to 231	CN1CCN(c2ncnc3oc(-c4ccc(N)nc4)c(-c4ccccc4)c23)CC1
129	O=S(=O)(c1c(F)c(F)c(F)c(F)c1F)c1c(F)c(F)c(F)c(F)c1F
136 to 138	CC1(C)CON(Cc2cc(N3C(=O)C4=C(CCCC4)C3=O)c(F)cc2Cl)C1=O
235 to 238	Cc1noc(CCc2c(-c3ccccc3)c(=O)[nH]c3cc(Cl)ccc23)n1
149 to 150	CN(c1cccc2cc(C3=NCC(C)(CCO)S3)[nH]c12)S(=O)(=O)c1cccs1 (centres undefined)
100 to 102	CC(C#N)=C1CCN(c2ccc(N3C[C@H](CO)OC3=O)cc2F)CC1
75 to 78	CCCCCCCCCCCCCCCCCCc1cc(OC(=O)CC)ccc1O
144	O=C(O)CC1CCCc2cc(S(=O)(=O)c3ccccc3)ccc21 (centres undefined)
225 to 227	Nc1cc(=O)nc(Nc2ccc(F)cc2)n1-c1ccccc1
110 to 112	Cc1cc(-c2c(C)nc3ccc(N4CCNC(C)(C)C4)nn23)ccn1
142 to 146	CCCC=NNc1cc2c(nn1)CCN(C(=O)OCC)C2

melting point [°C]	Structure (SMILES)
174 to 175	N#Cc1oc2c(sc3ccccc32)c1O
69 to 71	O=C1c2ccccc2C(=O)N1CCc1cccc(C(F)(F)F)c1
165 to 166	OC1c2ccc(F)cc2SC1Cn1ccnc1 (centres undefined)
197 to 199	O=C(O)c1ccc2cc(OCCN3CCN(c4ccc(Cl)cc4)CC3)ccc2c1
67 to 69	COC(=O)C(CS)NC(=O)CNC(=O)CS (centres undefined)
172 to 173	CC(C)c1nc(-c2ccc(F)cc2)c(-c2ccc(F)cc2)n1/C=C/[C@@H](O)C[C@@H](O)CC(=O)O
79 to 80	c1ccc2c(NCCN3CCOCC3)noc2c1
112 to 115	O=C(O)CCCCCCN1C(=O)c2ccccc2C1=O
203 to 204	N#Cc1ccc(-n2c(=O)oc3ccc(-c4ccc(F)cc4F)cc3c2=O)cc1
147 to 148	OC1CCCc2nc3ccccc3c(NCCCC(c3ccccc3)c3ccccc3)c21 (centres undefined)
133 to 134	CCc1c2c(c(C)c(C)c1N1CCN(c3ccc(OC)cc3)CC1)OC(C)(C)C2=O
156 to 157	COc1nc(Cl)cnc1NS(=O)(=O)c1cccnc1-c1ccc(CC(C)C)cc1
156 to 157	CC(C)(C)c1ccc(CCC(O)CC2CCCCC2)cc1NC(=O)NCC1c2ccccc2Oc2ccccc21 (centres undefined)
214 to 215	Cc1c(C)c2c(c(C)c1NC(=O)CC(C)(C)C)C(c1ccccc1)C(C)(C)O2 (centres undefined)
65 to 67	C=CCOc1cc(OCc2ccc3ccccc3c2)cc(C(=O)c2nccs2)c1
178 to 180	CCn1c(=O)c(C)cc2cnc(Nc3ccccc3)nc21
95	COc1cc(C(=O)c2c(C)c(C(=O)OCc3ccccc3)c3cc(NC(=O)OC(C)(C)C)ccn23)ccc1[N+](=O)[O-]
113	COc1cc(C(=O)CCCN2CCC(OC(=O)c3cc(Cl)c(N)c4c3OCCC4)CC2)cc(OC)c1OC
185 to 186	CSc1ccc(-n2cnc3ccc(-c4nnc(CCc5cccc(C#N)c5)o4)cc32)cc1
124 to 126	CC#CCOc1ccc(S(=O)(=O)N(C)C2(C(=O)O)CCCCC2)cc1
106 to 110	OCCC1(c2ccccc2)CCNC1 (centres undefined)
162 to 165	CN1N=C(c2ccc3c(c2)N(S(C)(=O)=O)CCO3)CCC1=O
287 to 289	CC(C)(Cn1cnc2c(N)nc3ccccc3c21)C(N)=O
50 to 52	O=C=Nc1ccc(S(=O)(=O)Cl)cc1

melting point [°C]	Structure (SMILES)
188	CNC(=S)N(CCN1CCC(Nc2nc3ccccc3n2Cc2ccc(F)cc2)CC1)c1nccs1
160 to 161	COc1cc(N)ccc1NC(=O)c1ccc(N)cc1
43 to 45	CCCCCCCCCCCCCCCCCCOc1cccc(CC(=O)OC)c1
206 to 208	NC(=O)c1ccnc(N2CCN(Cc3ccc(F)cc3)C2=O)c1
62 to 63	CCCCCCCCCC(=O)C1C(=O)CC(C)OC1=O (centres undefined)
221 to 222	CCOC(=O)c1cn2c(ccc3ccc(Cl)cc32)n1
118 to 121	CN(C)C(c1cccs1)C1CCC(=NO)CC1 (centres undefined)
230	N#Cc1ccc(NC(CNCC(=O)O)[N+](=O)[O-])cc1 (centres undefined)
165	COc1ccc(CN2C(=O)C(CO)(c3ccccc3Cl)c3cc(Cl)ccc32)c(OC)c1 (centres undefined)
139 to 141	Nc1nc(OS(=O)(=O)c2ccccc2)ncc1F
27	CCCCCOc1ccc(-c2ccc(CC[C@H]3CC[C@H](CCC)CC3)c(F)c2F)cc1
201	CCC(=O)N(C)c1cccc(-c2nc(=O)c3ccccc3s2)n1
55 to 56.5	C=CCc1cccc(CC(NC(C)=O)C(=O)OCc2ccccc2)c1 (centres undefined)
92	O=C(O)Cc1ccc(OCCNC(=O)C2Cc3ccccc3N2S(=O)(=O)c2ccc(-c3cccc(C(F)(F)F)c3)cc2)cc1 (centres undefined)
173 to 175	Cc1nc2ccc(Cl)cc2c(-c2ccc(F)cc2)c1CO
163	COC(=O)c1cnc(Cl)cc1NN
> 300	O=c1[nH]c2cc(Cl)c(Cl)cc2nc1Cl
84 to 86.5	NS(=O)(=O)c1ccccc1C(=O)OCCO
79 to 81	COC(=O)CCCON1C(=O)c2ccccc2C1=O
254 to 258	O=C(O)c1cccc(CN2C(=O)C3(COc4cc5c(cc43)OCCO5)c3ccccc32)c1 (centres undefined)
214 to 216	CCCOc1cc(C)ccc1-c1nc(N)c(N=O)c(=O)[nH]1
72	CC(C)(C)OC(=O)[C@@H](Cc1ccccc1)NC(=O)C1CN(c2ccc(C#N)cc2)C(=O)O1 (some centres undefined)
135 to 136	CC(CC1CCOCC1)(c1ccc(S(C)(=O)=O)cn1)c1ccc(-c2ccccn2)[nH]1 (centres undefined)

Structure (SMILES)	melting point [°C]
Cn1c(=O)c2c(ncn2CCCN2CC=C(c3c[nH]c4ccc(Br)cc34)CC2)n(C)c1=O	195
NC(c1ccc2c(c1)OCO2)P(O)O (centres undefined)	235 to 236
CC(C)(C)OC1CCC2(C)C(=CCC3C4CCC(=O)C4(C)CCC32)C1 (centres undefined)	185 to 187
CCC(=O)N(C)c1cccc(-c2ccnc3c(C(=O)c4cccs4)cnn23)c1	186 to 187
